Measurements from BigSolDB 2.1.

CC[C@H](C)C(=O)O[C@H]1C[C@@H](C)C=C2C=C[C@H](C)[C@H](CC[C@@H]3C[C@@H](O)CC(=O)O3)[C@H]21
solubility (mole fraction)
Conditions	in 2-butanone	in acetone	in ethyl acetate	in isobutyl acetate	in isopropyl acetate	in methyl acetate	in n-butyl acetate	in n-propyl acetate	in sec-butyl acetate	in tert-butyl acetate
285.1 K	0.00752	0.00831	0.00417	0.00345	0.00335	0.00309	0.00407	0.00395	0.00365	0.00275
288.3 K	0.00878	0.00936	0.0047	0.00383	0.00372	0.0034	0.00452	0.00438	0.00401	0.00314
291.2 K	0.00918	0.0104	0.00517	0.00422	0.00412	0.00376	0.00494	0.00481	0.00446	0.00346
294.6 K	0.0111	0.0118	0.00586	0.0047	0.00459	0.00417	0.00557	0.00544	0.005	0.00386
297.2 K	0.0115	0.013	0.00656	0.00504	0.00497	0.00447	0.00611	0.00587	0.00545	0.0042
300.3 K	0.0132	0.0146	0.00706	0.0057	0.00553	0.00515	0.00679	0.00658	0.00606	0.00479
303.1 K	0.0147	0.0163	0.00778	0.00627	0.00606	0.00543	0.00748	0.00724	0.00666	0.0051
306.3 K	0.0175	0.0183	0.0087	0.00702	0.00677	0.00619	0.00836	0.00803	0.00745	0.00569
309.4 K	0.0197	0.0206	0.00967	0.00777	0.00756	0.00674	0.00931	0.00901	0.0083	0.00638
312.2 K	0.0219	0.0228	0.0108	0.00864	0.00832	0.00746	0.0103	0.00997	0.00915	0.00693
